{"source": "ChEMBL document CHEMBL1795325", "about": "“Studying synergism of methyl linked cyclohexyl thiophenes with triazole: synthesis and their cdk5/p25 inhibition activity” (Eur J Med Chem, 2011)", "note": "pIC50: −log10 of the molar value.", "data": [{"molecular_target": "Cyclin-dependent kinase 5/CDK5 activator 1 (Homo sapiens, UniProt Q00535)", "sequence (Q00535 whole entry)": "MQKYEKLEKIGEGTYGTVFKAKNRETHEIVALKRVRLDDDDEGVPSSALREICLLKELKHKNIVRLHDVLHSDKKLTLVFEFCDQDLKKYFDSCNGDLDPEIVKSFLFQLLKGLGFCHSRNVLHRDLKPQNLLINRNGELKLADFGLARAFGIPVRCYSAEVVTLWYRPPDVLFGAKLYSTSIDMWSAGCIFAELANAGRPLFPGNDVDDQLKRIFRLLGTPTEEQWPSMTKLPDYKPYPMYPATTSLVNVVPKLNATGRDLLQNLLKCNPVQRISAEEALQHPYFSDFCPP", "sequence (Q15078 whole entry, further chain)": "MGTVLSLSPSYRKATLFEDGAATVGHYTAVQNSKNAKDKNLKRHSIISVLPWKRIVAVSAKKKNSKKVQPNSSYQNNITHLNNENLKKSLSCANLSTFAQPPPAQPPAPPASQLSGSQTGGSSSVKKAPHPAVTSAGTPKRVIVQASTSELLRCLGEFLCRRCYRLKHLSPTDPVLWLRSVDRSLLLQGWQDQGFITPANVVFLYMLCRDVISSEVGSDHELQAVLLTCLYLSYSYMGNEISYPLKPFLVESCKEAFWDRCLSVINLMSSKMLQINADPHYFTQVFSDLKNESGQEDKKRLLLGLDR", "type": "protein-complex assay", "values": [{"molecule": "CC(=O)NNC(=O)CSc1nnc(Cc2c(NCCC(=O)O)sc3c2CCCC3)n1NC(C)=O", "pIC50": 6.44}, {"molecule": "COC(=O)CSc1nnc(Cc2c(NCCC(=O)O)sc3c2CCCC3)n1NC(C)=O", "pIC50": 6.13}, {"molecule": "O=C(O)CCNc1sc2c(c1Cc1nnc(SCC(=O)NNC(=O)CCl)n1NC(=O)c1ccccc1)CCCC2", "pIC50": 6.44}, {"molecule": "Nn1c(S)nnc1CSc1nnc(Cc2c(NC(=O)c3ccccc3)sc3c2CCCC3)n1NC(=O)c1ccc(Cl)cc1", "pIC50": 5.48}, {"molecule": "CC(=O)NNC(=O)CSc1nnc(Cc2c(NC(C)=O)sc3c2CCCC3)n1NC(=O)c1ccccc1", "pIC50": 6.26}, {"molecule": "COC(=O)CSc1nnc(Cc2c(NCCC(=O)O)sc3c2CCCC3)n1NC(=O)c1ccc(Cl)cc1", "pIC50": 6.27}, {"molecule": "COC(=O)CSc1nnc(Cc2c(NC(C)=O)sc3c2CCCC3)n1NC(C)=O", "pIC50": 6.41}, {"molecule": "O=C(CCl)NNC(=O)CSc1nnc(Cc2c(NC(=O)c3ccccc3)sc3c2CCCC3)n1NC(=O)c1ccc(Cl)cc1", "pIC50": 6.47}, {"molecule": "O=C(O)CCNc1sc2c(c1Cc1n[nH]c(=S)n1NC(=O)c1ccccc1)CCCC2", "pIC50": 6.17}, {"molecule": "NNC(=O)CSc1nnc(Cc2c(NC(=O)c3ccccc3)sc3c2CCCC3)n1NC(=O)c1ccc(Cl)cc1", "pIC50": 6.63}, {"molecule": "O=C(CSc1nnc(Cc2c(NC(=O)c3ccccc3)sc3c2CCCC3)n1NC(=O)c1ccccc1)N/N=C/c1ccccc1", "pIC50": 6.36}, {"molecule": "CC(=O)Nn1c(Cc2c(NCCC(=O)O)sc3c2CCCC3)nnc1SCc1nnc(S)n1N", "pIC50": 5.21}, {"molecule": "CC(=O)Nc1sc2c(c1Cc1nnc(SCC(=O)NN)n1NC(=O)c1ccccc1)CCCC2", "pIC50": 6.72}, {"molecule": "CC(=O)Nc1sc2c(c1Cc1nnc(SCC(=O)NNC(=O)c3ccccc3)n1NC(=O)c1ccc(Cl)cc1)CCCC2", "pIC50": 6.28}, {"molecule": "COC(=O)CSc1nnc(Cc2c(NC(C)=O)sc3c2CCCC3)n1NC(=O)c1ccccc1", "pIC50": 6.24}, {"molecule": "CC(=O)Nc1sc2c(c1Cc1nnc(SCC(=O)NNC(=O)CCl)n1NC(C)=O)CCCC2", "pIC50": 6.32}, {"molecule": "N#CCSc1nnc(Cc2c(NCCC(=O)O)sc3c2CCCC3)n1NC(=O)c1ccccc1", "pIC50": 5.31}, {"molecule": "CC(=O)Nn1c(Cc2c(NCCC(=O)O)sc3c2CCCC3)nnc1SCC#N", "pIC50": 6.19}, {"molecule": "N#CCSc1nnc(Cc2c(NCCC(=O)O)sc3c2CCCC3)n1NC(=O)c1ccc(Cl)cc1", "pIC50": 6.37}, {"molecule": "Nn1c(S)nnc1CSc1nnc(Cc2c(NCCC(=O)O)sc3c2CCCC3)n1NC(=O)c1ccc(Cl)cc1", "pIC50": 5.23}, {"molecule": "CC(=O)Nc1sc2c(c1Cc1nnc(SCSc3nnc(Cc4c(NC(C)=O)sc5c4CCCC5)n3NC(C)=O)n1NC(C)=O)CCCC2", "pIC50": 6.08}, {"molecule": "NNC(=O)CSc1nnc(Cc2c(NC(=O)c3ccccc3)sc3c2CCCC3)n1NC(=O)c1ccccc1", "pIC50": 6.58}, {"molecule": "O=C(O)CCNc1sc2c(c1Cc1nnc(S)n1NC(=O)c1ccc(Cl)cc1)CCCC2", "pIC50": 6.34}, {"molecule": "O=C(CCl)NNC(=O)CSc1nnc(Cc2c(NC(=O)c3ccccc3)sc3c2CCCC3)n1NC(=O)c1ccccc1", "pIC50": 6.26}, {"molecule": "CC(=O)Nc1sc2c(c1Cc1nnc(SCSc3nnc(Cc4c(NC(C)=O)sc5c4CCCC5)n3NC(=O)c3ccc(Cl)cc3)n1NC(=O)c1ccc(Cl)cc1)CCCC2", "pIC50": 6.44}, {"molecule": "N#CCSc1nnc(Cc2c(NC(=O)c3ccccc3)sc3c2CCCC3)n1NC(=O)c1ccccc1", "pIC50": 6.31}, {"molecule": "CC(=O)Nc1sc2c(c1Cc1nnc(SCC(=O)NNC(=O)CCl)n1NC(=O)c1ccc(Cl)cc1)CCCC2", "pIC50": 6.59}, {"molecule": "NNC(=O)CSc1nnc(Cc2c(NCCC(=O)O)sc3c2CCCC3)n1NC(=O)c1ccccc1", "pIC50": 6.34}, {"molecule": "CC(=O)Nc1sc2c(c1Cc1nnc(SCC#N)n1NC(=O)c1ccc(Cl)cc1)CCCC2", "pIC50": 6.38}, {"molecule": "O=C(O)CCNc1sc2c(c1Cc1nnc(SCC(=O)NNC(=O)c3ccccc3)n1NC(=O)c1ccccc1)CCCC2", "pIC50": 6.36}, {"molecule": "CC(=O)NNC(=O)CSc1nnc(Cc2c(NC(C)=O)sc3c2CCCC3)n1NC(C)=O", "pIC50": 6.49}, {"molecule": "CC(=O)Nc1sc2c(c1Cc1nnc(SCC(=O)N/N=C/c3ccccc3)n1NC(=O)c1ccccc1)CCCC2", "pIC50": 6.41}, {"molecule": "CC(=O)Nc1sc2c(c1Cc1nnc(SCC(=O)NNC(=O)c3ccccc3)n1NC(C)=O)CCCC2", "pIC50": 6.36}, {"molecule": "COC(=O)CSc1nnc(Cc2c(NC(=O)c3ccccc3)sc3c2CCCC3)n1NC(C)=O", "pIC50": 6.25}, {"molecule": "O=C(Nc1sc2c(c1Cc1nnc(SCSc3nnc(Cc4c(NC(=O)c5ccccc5)sc5c4CCCC5)n3NC(=O)c3ccccc3)n1NC(=O)c1ccccc1)CCCC2)c1ccccc1", "pIC50": 6.16}, {"molecule": "CC(=O)Nc1sc2c(c1Cc1nnc(SCc3nnc(S)n3N)n1NC(=O)c1ccc(Cl)cc1)CCCC2", "pIC50": 5.20}, {"molecule": "CC(=O)Nn1c(S)nnc1Cc1c(NC(=O)c2ccccc2)sc2c1CCCC2", "pIC50": 6.21}, {"molecule": "O=C(CSc1nnc(Cc2c(NC(=O)c3ccccc3)sc3c2CCCC3)n1NC(=O)c1ccc(Cl)cc1)N/N=C/c1ccccc1", "pIC50": 6.66}, {"molecule": "O=C(Nc1sc2c(c1Cc1nnc(S)n1NC(=O)c1ccc(Cl)cc1)CCCC2)c1ccccc1", "pIC50": 6.74}, {"molecule": "CC(=O)Nn1c(Cc2c(NCCC(=O)O)sc3c2CCCC3)nnc1SCC(=O)NNC(=O)CCl", "pIC50": 6.58}, {"molecule": "CC(=O)Nc1sc2c(c1Cc1nnc(SCC(=O)NNC(=O)c3ccccc3)n1NC(=O)c1ccccc1)CCCC2", "pIC50": 6.38}, {"molecule": "CC(=O)NNC(=O)CSc1nnc(Cc2c(NC(=O)c3ccccc3)sc3c2CCCC3)n1NC(=O)c1ccc(Cl)cc1", "pIC50": 6.50}, {"molecule": "CC(=O)NNC(=O)CSc1nnc(Cc2c(NC(C)=O)sc3c2CCCC3)n1NC(=O)c1ccc(Cl)cc1", "pIC50": 6.19}, {"molecule": "CC(=O)Nc1sc2c(c1Cc1nnc(S)n1NC(C)=O)CCCC2", "pIC50": 6.23}, {"molecule": "CC(=O)Nc1sc2c(c1Cc1nnc(SCc3n[nH]c(=S)n3N)n1NC(=O)c1ccccc1)CCCC2", "pIC50": 5.19}, {"molecule": "CC(=O)Nc1sc2c(c1Cc1n[nH]c(=S)n1NC(=O)c1ccccc1)CCCC2", "pIC50": 6.24}, {"molecule": "COC(=O)CSc1nnc(Cc2c(NC(=O)c3ccccc3)sc3c2CCCC3)n1NC(=O)c1ccccc1", "pIC50": 6.45}, {"molecule": "CC(=O)NNC(=O)CSc1nnc(Cc2c(NCCC(=O)O)sc3c2CCCC3)n1NC(=O)c1ccccc1", "pIC50": 6.33}, {"molecule": "CC(=O)Nc1sc2c(c1Cc1nnc(SCSc3nnc(Cc4c(NC(C)=O)sc5c4CCCC5)n3NC(=O)c3ccccc3)n1NC(=O)c1ccccc1)CCCC2", "pIC50": 6.19}, {"molecule": "NNC(=O)CSc1nnc(Cc2c(NCCC(=O)O)sc3c2CCCC3)n1NC(=O)c1ccc(Cl)cc1", "pIC50": 6.70}, {"molecule": "CC(=O)Nc1sc2c(c1Cc1nnc(SCC(=O)NN)n1NC(C)=O)CCCC2", "pIC50": 6.60}, {"molecule": "CC(=O)Nc1sc2c(c1Cc1n[nH]c(=S)n1NC(=O)c1ccc(Cl)cc1)CCCC2", "pIC50": 6.34}, {"molecule": "CC(=O)Nn1c(Cc2c(NC(=O)c3ccccc3)sc3c2CCCC3)nnc1SCC(=O)N/N=C/c1ccccc1", "pIC50": 6.33}, {"molecule": "CC(=O)Nc1sc2c(c1Cc1nnc(SCC(=O)N/N=C/c3ccccc3)n1NC(=O)c1ccc(Cl)cc1)CCCC2", "pIC50": 6.67}, {"molecule": "CC(=O)Nn1c(Cc2c(NC(=O)c3ccccc3)sc3c2CCCC3)nnc1SCSc1nnc(Cc2c(NC(=O)c3ccccc3)sc3c2CCCC3)n1NC(C)=O", "pIC50": 6.12}, {"molecule": "CC(=O)Nn1c(Cc2c(NC(=O)c3ccccc3)sc3c2CCCC3)nnc1SCC(=O)NN", "pIC50": 6.74}, {"molecule": "O=C(O)CCNc1sc2c(c1Cc1nnc(SCC(=O)NNC(=O)c3ccccc3)n1NC(=O)c1ccc(Cl)cc1)CCCC2", "pIC50": 6.57}, {"molecule": "O=C(O)CCNc1sc2c(c1Cc1nnc(SCC(=O)N/N=C/c3ccccc3)n1NC(=O)c1ccccc1)CCCC2", "pIC50": 6.57}, {"molecule": "O=C(Nc1sc2c(c1Cc1nnc(SCSc3nnc(Cc4c(NC(=O)c5ccccc5)sc5c4CCCC5)n3NC(=O)c3ccc(Cl)cc3)n1NC(=O)c1ccc(Cl)cc1)CCCC2)c1ccccc1", "pIC50": 6.20}, {"molecule": "COC(=O)CSc1nnc(Cc2c(NC(C)=O)sc3c2CCCC3)n1NC(=O)c1ccc(Cl)cc1", "pIC50": 6.41}, {"molecule": "O=C(O)CCNc1sc2c(c1Cc1nnc(SCSc3nnc(Cc4c(NCCC(=O)O)sc5c4CCCC5)n3NC(=O)c3ccc(Cl)cc3)n1NC(=O)c1ccc(Cl)cc1)CCCC2", "pIC50": 6.79}, {"molecule": "CC(=O)Nn1c(Cc2c(NCCC(=O)O)sc3c2CCCC3)n[nH]c1=S", "pIC50": 6.36}, {"molecule": "CC(=O)Nn1c(Cc2c(NC(=O)c3ccccc3)sc3c2CCCC3)nnc1SCC(=O)NNC(=O)CCl", "pIC50": 6.45}, {"molecule": "COC(=O)CSc1nnc(Cc2c(NC(=O)c3ccccc3)sc3c2CCCC3)n1NC(=O)c1ccc(Cl)cc1", "pIC50": 6.53}, {"molecule": "CC(=O)NNC(=O)CSc1nnc(Cc2c(NC(=O)c3ccccc3)sc3c2CCCC3)n1NC(C)=O", "pIC50": 6.19}, {"molecule": "CC(=O)Nc1sc2c(c1Cc1nnc(SCC(=O)N/N=C/c3ccccc3)n1NC(C)=O)CCCC2", "pIC50": 6.34}, {"molecule": "CC(=O)Nn1c(Cc2c(NCCC(=O)O)sc3c2CCCC3)nnc1SCC(=O)N/N=C/c1ccccc1", "pIC50": 6.27}, {"molecule": "CC(=O)NNC(=O)CSc1nnc(Cc2c(NC(=O)c3ccccc3)sc3c2CCCC3)n1NC(=O)c1ccccc1", "pIC50": 6.25}, {"molecule": "O=C(CSc1nnc(Cc2c(NC(=O)c3ccccc3)sc3c2CCCC3)n1NC(=O)c1ccc(Cl)cc1)NNC(=O)c1ccccc1", "pIC50": 6.32}, {"molecule": "CC(=O)Nn1c(Cc2c(NC(=O)c3ccccc3)sc3c2CCCC3)nnc1SCC#N", "pIC50": 6.25}, {"molecule": "O=C(Nc1sc2c(c1Cc1nnc(S)n1NC(=O)c1ccccc1)CCCC2)c1ccccc1", "pIC50": 6.05}, {"molecule": "CC(=O)Nn1c(Cc2c(NCCC(=O)O)sc3c2CCCC3)nnc1SCC(=O)NN", "pIC50": 6.03}, {"molecule": "CC(=O)Nc1sc2c(c1Cc1nnc(SCc3n[nH]c(=S)n3N)n1NC(C)=O)CCCC2", "pIC50": 5.29}, {"molecule": "COC(=O)CSc1nnc(Cc2c(NCCC(=O)O)sc3c2CCCC3)n1NC(=O)c1ccccc1", "pIC50": 6.19}, {"molecule": "N#CCSc1nnc(Cc2c(NC(=O)c3ccccc3)sc3c2CCCC3)n1NC(=O)c1ccc(Cl)cc1", "pIC50": 6.26}, {"molecule": "CC(=O)Nn1c(Cc2c(NCCC(=O)O)sc3c2CCCC3)nnc1SCC(=O)NNC(=O)c1ccccc1", "pIC50": 6.32}, {"molecule": "CC(=O)Nc1sc2c(c1Cc1nnc(SCC#N)n1NC(=O)c1ccccc1)CCCC2", "pIC50": 6.41}, {"molecule": "CC(=O)Nn1c(Cc2c(NC(=O)c3ccccc3)sc3c2CCCC3)nnc1SCC(=O)NNC(=O)c1ccccc1", "pIC50": 6.39}, {"molecule": "O=C(O)CCNc1sc2c(c1Cc1nnc(SCC(=O)NNC(=O)CCl)n1NC(=O)c1ccc(Cl)cc1)CCCC2", "pIC50": 6.73}, {"molecule": "O=C(O)CCNc1sc2c(c1Cc1nnc(SCSc3nnc(Cc4c(NCCC(=O)O)sc5c4CCCC5)n3NC(=O)c3ccccc3)n1NC(=O)c1ccccc1)CCCC2", "pIC50": 6.24}, {"molecule": "CC(=O)Nn1c(Cc2c(NC(=O)c3ccccc3)sc3c2CCCC3)nnc1SCc1nnc(S)n1N", "pIC50": 5.21}, {"molecule": "CC(=O)Nc1sc2c(c1Cc1nnc(SCC(=O)NNC(=O)CCl)n1NC(=O)c1ccccc1)CCCC2", "pIC50": 6.19}, {"molecule": "CC(=O)NNC(=O)CSc1nnc(Cc2c(NCCC(=O)O)sc3c2CCCC3)n1NC(=O)c1ccc(Cl)cc1", "pIC50": 6.45}, {"molecule": "O=C(O)CCNc1sc2c(c1Cc1nnc(SCC(=O)N/N=C/c3ccccc3)n1NC(=O)c1ccc(Cl)cc1)CCCC2", "pIC50": 6.59}]}]}
